Molecules are shown by their SMILES.

Assay in the first series: not given
Settings: not given
What is called logP is the decadic logarithm of the partition coefficient of the neutral form, usually between octanol and water. Read a high logP as a more lipophilic compound. For the molecule `Cc1ccc(S(=O)(=O)Oc2c(C(=O)c3ccc(Cl)cc3Cl)c(C)nn2C)cc1`, the logP was 3.9. Same read-out and setting: then `CCCOP(=O)(OCCC)Oc1ccc(SC)cc1`, with 3.44; and `CCOP(=S)(OCC)SCCSCC`, with 3.84. Regarding `CCOC(=O)C(SP(=S)(OC)OC)c1ccccc1` (stereo not drawn), the logP turned out to be 3.32. As for `COP1(=S)OCc2ccccc2O1` (stereo not drawn), the logP is 2.12.

In turn, `CCCOP(=S)(OCCC)SCC(=O)N1CCCCC1C` (stereo not drawn) displayed a log partition coefficient (logP) of 4.04. Molecule `CCN(OC(=O)c1ccccc1)C(=O)c1c(OC)ccc(Cl)c1OC` registered a logP of 3.73.

Another series can be described thus: method code SF, from DOI: 10.1002/jps.2600830714, PMID: 7965679.
Settings: not given
`CC(NC(=O)N(CCCl)N=O)C(=O)NC1C(O)OC(CO)C(O)C1O` (stereo not drawn) displayed a logP of -1.02. In turn, `NC(=O)CNC(=O)N(CCCl)N=O` came in with a logP of -0.3.

`COC1OC(CO)C(O)C(O)C1NC(=O)C(C)NC(=O)N(CCCl)N=O` (stereo not drawn) came in with a logP of -0.76. `CO[C@H]1O[C@H](CO)[C@@H](O)[C@H](O)[C@H]1NC(=O)CNC(=O)N(CCCl)N=O` had a logP of -1.04.

For `CC(=O)OC[C@H]1O[C@@H](OC(C)=O)[C@H](NC(=O)CNC(=O)N(CCCl)N=O)[C@@H](OC(C)=O)[C@@H]1OC(C)=O`, the logP was found to be 0.61. Still for that read-out and setting: then `O=NN(CCCl)C(=O)NCC(=O)NC1C(O)OC(CO)C(O)C1O` (stereo not drawn), with -1.1.

Assay in a further series: not given
Settings: not given
This is another data set of the same source.
`CCc1cnccn1` displayed a logP of 0.79. As to `CNC(=O)c1ccccc1`, the logP is 1.05. Molecule `Cc1c[nH]c2ccccc12` registered a logP of 2.61. `CCOC(=O)c1ccco1` returned a logP of 1.57.

As to `c1ccoc1`, the logP was determined as 1.31. `c1cncnc1` gave a logP of -0.34.

Assay in another series: not given
Settings: not given
This is another data set of the same source.
As for `NS(=O)(=O)c1cc(C(=O)O)cc(N2CCCC2)c1Oc1ccccc1`, the lipophilicity (logP) was determined as 3.27. Still for that read-out and setting: then `NS(=O)(=O)c1ccc([N+](=O)[O-])cc1[N+](=O)[O-]`, with 0.3. `CC(C)CN[C@H]1CCS(=O)(=O)c2sc(S(N)(=O)=O)cc21`: the lipophilicity (logP) was -0.03. In the case of `CN(C)c1cccc2c(S(N)(=O)=O)cccc12`, the log partition coefficient (logP) was 1.83.

`NS(=O)(=O)c1ccccc1[N+](=O)[O-]` registered a logP of 0.4. `NS(=O)(=O)c1ccc([N+](=O)[O-])cc1` returned a logP of 0.58. The same measure, in the same setting: then `NS(=O)(=O)c1cc(Cl)ccc1Cl`, with 1.65.

Assay in the next series: not given
Settings: not given
This is another data set of the same source.
`Cc1nc(N2CCNCC2)c(C#N)cc1-c1ccncc1` gave a logP of 2.96. `Cc1nc(N2CCNCC2)c(C#N)cc1-c1ccccc1` returned a logP of 3.15. On to `N#Cc1cc(-c2ccncc2)cnc1NCCN`, for which the logP came out at 1.93. For the molecule `CCN(CC)CCCNc1ncc(-c2ccncc2)cc1C#N`, the logP was 2.56.

`N#Cc1cc(-c2ccncc2)cnc1N1CCN(CCO)CC1` returned a logP of 2.14.

As for `N#Cc1cc(-c2ccncc2)cnc1NCCCN1CCOCC1`, the logP is 2.43.

For the molecule `N#Cc1cc(-c2ccncc2)cnc1N1CCNCC1`, the logP turned out to be 2.51.

The nature of another series: method code SF, from DOI: 10.1016/0360-3016(86)90226-9, PMID: 3744928. To be noted: pH 7.4.
What is called logD is lipophilicity at a set pH, counting ionised and neutral species. Read a high logD as a more lipophilic compound. With `CCOCC(O)Cn1cnc([N+](=O)[O-])n1` (stereo not drawn), the logD is -0.07.

Molecule `O=C(Cn1cnc([N+](=O)[O-])n1)NCCCO` gave a logD of -1.24.

As to `O=[N+]([O-])c1ncn(CC(O)CCl)n1` (stereo not drawn), the logD was found to be 0.05.

As to `COC(=O)Cn1cnc([N+](=O)[O-])n1`, the log distribution coefficient (logD) is -0.38. With `O=[N+]([O-])c1nccn1CC(O)CN1CC1` (stereo not drawn), the logD was -0.66. Still for that read-out and setting: with `O=[N+]([O-])c1ncn([C@H]2O[C@H](CO)[C@@H](O)[C@H]2O)n1` the figure was -1.54.

Another series is described as follows: method code SF-HPLC, from DOI: 10.1016/s0021-9673(01)88640-4.
Settings: not given
Regarding `N#CN=[N+]([O-])c1cccc2ccccc12`, the logP is 3.17. The molecule `N#CN=[N+]([O-])c1cc[n+]([O-])c2ccccc12` displayed a logP of 1.12. On the same count and under the same terms, with `N#CN=[N+]([O-])c1ccnc2ccccc12` the figure was 2.07; with `N#CN=[N+]([O-])c1ccccn1`, 0.53.

Molecule `N#CN=[N+]([O-])c1ncccn1` gave a logP of -0.31.

`N#CN=[N+]([O-])c1cc[n+]([O-])cc1`: the logP is -0.41.

Assay in the next series: not given
Settings: not given
This is another data set of the same source.
`Cc1cc[n+]([O-])cc1` gave a logP of -0.88. The molecule `[O-][n+]1ccc(Cl)cc1` registered a logP of -0.44. `CC(=O)c1cc[n+]([O-])cc1` showed a logP of -0.93.

`CCOc1cc[n+]([O-])cc1` displayed a logP of -0.53. Same read-out and setting: then `N#Cc1cc[n+]([O-])cc1`, with -0.91. As for `[O-][n+]1cccc2ccccc21`, the logP was found to be 0.41.

A short description of the next series: method code SF-GLC, from DOI: 10.1016/0378-4274(82)90116-3, PMID: 7090003.
Settings: not given
`C=C(C)C(=O)OCC(C)C` came in with a logP of 2.66.

The molecule `C=C(C)C(=O)OC(C)(C)C` had a lipophilicity (logP) of 2.54. Consider `C=C(C)C(=O)OCC(C)O` (stereo not drawn), for which the logP stood at 0.97. In the case of `C=CC(=O)OCCO`, the logP was -0.21. On to `C=C(C)C(=O)OCCO`, for which the log partition coefficient (logP) amounted to 0.47. The molecule `C=CC(=O)OCC(C)C` returned a logP of 2.22.

The nature of another series: method code SF, from DOI: 10.1016/0360-3016(89)90912-7, PMID: 2703384. The conditions noted are these: pH 7.4.
Turning to `O=[N+]([O-])c1cn(CC(O)CF)cn1` (stereo not drawn), the logD was -0.44. Same read-out and setting: then `O=[N+]([O-])c1cn(CC(F)(F)CO)cn1`, with -0.21; and `O=C(Cn1cnc([N+](=O)[O-])c1)NCCO`, with -0.46. Molecule `COCCNC(=O)C(F)(F)Cn1ccnc1[N+](=O)[O-]` displayed a logD of -0.15. The same measure, in the same setting: with `O=[N+]([O-])c1nccn1CC(F)(F)CO` the figure was 0.04; with `COCC(F)Cn1ccnc1[N+](=O)[O-]` (stereo not drawn), 0.18.

Another series is described as follows: method code SF-HPLC, from DOI: 10.1002/ps.2780220406.
Settings: not given
With `Fc1ccc(Cn2cncn2)cc1`, the logP was 1.1. The molecule `c1ccc(Cn2cncn2)cc1` returned a log partition coefficient (logP) of 0.92.

As to `CCCCc1ccc(Cn2cncn2)cc1`, the logP stood at 2.81. Still for that read-out and setting: then `Clc1ccc(Cn2cncn2)cc1`, with 1.84.

Take `COc1ccc(Cn2cncn2)cc1`: the logP stood at 1.1. As to `FC(F)(F)c1cccc(Cn2cncn2)c1`, the logP is 1.74.

A further series can be described thus: method code SF-HPLC, from DOI: 10.1248/cpb.43.1894.
Settings: not given
Take `CC(C)C(=O)c1ccccc1`: the logP was found to be 2.59. In turn, `CSC(=S)C(C)(C)C(=O)c1ccccc1` gave a logP of 3.9.

Turning to `CSC(=S)C1=C(SC)CCCC1`, the logP came out at 3.81. This logP and that of the molecule before are within 0.2 log units of each other.

As to `CSC(=S)C(C)(C)C(C)=O`, the logP was found to be 2.8. Molecule `S=C1CCCC1=C1SCCS1` returned a logP of 3.12. As to `CSC(=S)c1ccccc1SC`, the logP amounted to 3.74.

In turn, `CSC1=CCCCC1` showed a logP of 3.3.

A short description of a further series: method code SF-AS, from DOI: 10.2307/3577276, PMID: 2913608.
Settings: not given
`O=[N+]([O-])c1nc[nH]c1S(=O)(=O)NC1CCCCC1` gave a logP of 1.38. In the case of `CCNS(=O)(=O)c1[nH]cnc1[N+](=O)[O-]`, the logP is -0.37. As to `Cn1cnc([N+](=O)[O-])c1S(N)(=O)=O`, the logP was -0.74. `CC(=O)Nc1cccc(NS(=O)(=O)c2[nH]cnc2[N+](=O)[O-])c1`: the lipophilicity (logP) is 0.2. Still for that read-out and setting: then `CC(=O)Nc1ccccc1NS(=O)(=O)c1[nH]cnc1[N+](=O)[O-]`, with -0.06; and `CC(C)(C)c1ccc(NS(=O)(=O)c2[nH]cnc2[N+](=O)[O-])cc1`, with 2.28.

A short description of the next series: method code SF-AS, from DOI: 10.1007/s001289900721, PMID: 9657823.
Settings: not given
Take `O=Cc1cc(O)cc(Br)c1`: the logP stood at 2.5. On the same count and under the same terms, then `CCOc1ccc(C=O)cc1OC`, with 1.63. In turn, `CC(C)OC(=O)COc1ccc(C=O)cc1` came in with a logP of 1.88. On the same count and under the same terms, then `O=Cc1cccc(O)c1`, with 1.29; and `O=Cc1cc(Br)ccc1Br`, with 3.35. In the case of `COc1cc(C=O)cc(OC)c1OC`, the logP was 1.39. The molecule `O=Cc1ccc(O)c(Br)c1` yielded a logP of 1.83.

A short description of another series: method code SF-HPLC, from DOI: 10.3109/14756366.2013.845817, PMID: 24156741.
Settings: not given
In turn, `C#CCn1cc(C(=O)NC(c2ccccc2)C(O)C(=O)Nc2ccccc2)c(=O)c2cccnc21` (stereo not drawn) showed a logP of 4.25. Regarding `C#CCn1cc(C(=O)NC(c2ccccc2)C(O)C(=O)NC2CCCC2)c(=O)c2cc(F)c(Cl)nc21` (stereo not drawn), the logP is 5.82. As to `C#CCn1cc(C(=O)NC(c2ccccc2)C(O)C(=O)Nc2ccccn2)c(=O)c2cccnc21` (stereo not drawn), the logP came out at 4.02. In turn, `C#CCn1cc(C(=O)NC(CC(=O)Nc2ccccc2)c2ccccc2)c(=O)c2ccc(Cl)nc21` (stereo not drawn) displayed a logP of 5.41. `C#CCn1cc(C(=O)NC(c2ccccc2)C(O)C(=O)Nc2ccccn2)c(=O)c2cc(F)c(Cl)nc21` (stereo not drawn): the logP was found to be 5.32. With `C#CCn1cc(C(=O)NC(c2ccccc2)C(O)C(=O)NC2CCCCC2)c(=O)c2ccc(Cl)nc21` (stereo not drawn), the logP is 5.14. `C#CCn1cc(C(=O)NC(CC(=O)NC2CCCC2)c2ccccc2)c(=O)c2cc(F)c(Cl)nc21` (stereo not drawn) gave a logP of 5.96.

A short description of the next series: method code SF-AS, from DOI: 10.1016/0021-9673(91)80064-n.
Settings: not given
The molecule `C=CC(=O)NCCCN(C)C` registered a logP of 0. As to `C=CC(=O)NCCCN(CCO)CCO`, the logP is -0.6.

These data come from the SangsterLogP compilation.
